The values below come from US10278957B2, “Opioid agonist peptides and uses thereof” (Protagonist Therapeutics, Inc., priority 2017, dated 2019).

Molecules are shown by their SMILES. Numbered stars: 1 amine (or outer) side, 2 acyl side, 3 side chain; on linkers, the order of the positions; unused ones are H or OH. Bridge positions count the residues as written; N and C are the ends. Square brackets hold non-standard residues; d marks the D form. Peptide text beside a SMILES is read from it. I, II: the chains in the order shown. Diglycolyl = O=C(COCC(=O)[*:2])[*:1]; Dmt = Cc1cc(O)cc(C)c1C[C@H](N)C(=O)O; β3hF = N[C@H](CC(=O)O)Cc1ccccc1; Sar = CNCC(=O)O

The nature of data set [1]: SIF assay (stability in simulated intestinal fluid). In kind it is in vitro ADME. Particulars: for half-life at 20 μM: simulated intestinal fluid (SIF) with pancreatin, simulated intestinal fluid, pH 6.8, pancreatin, 37° C. The procedure: SIF was prepared by adding 6.8 g of monobasic potassium phosphate and 10.0 g of pancreatin to 1.0 L of water. After dissolution, the pH was adjusted to 6.8 using NaOH. DMSO stocks (2 mM) were prepared for each of the opioid agonist peptides. Aliquots of the DMSO solutions were dosed into […], each containing 0.5 mL of SIF, which was pre-warmed to 37° C. The final opioid agonist peptide concentration was 20 μM. The vials were kept in a benchtop Thermomixer® for the duration of the experiment. At each timepoint (0, 5, 10, 20, 40, 60, or 360 minutes or 24 hours), 1.0 mL of acetonitrile containing 1% formic acid was added to one vial to terminate the reaction. Samples were stored at 4° C. until the end of the experiment. After the final timepoint was sampled, the tubes were mixed and then centrifuged at 3,000 rpm for 10 minutes. Aliquots of the supernatant were removed, diluted 1:1 into distilled water containing an internal standard, and analyzed by LCMS/MS. The percent of the opioid agonist peptide remaining at each timepoint was calculated based on the peak area response ratio of opioid agonist peptide to the internal standard. Time 0 was set to 100%, and all later timepoints were calculated relative to time 0. Half-lives were calculated by fitting to a first-order exponential decay equation using Graph pad.

The target of a further data set is T1, δ-opioid receptor (DOR) (Homo sapiens, UniProt P41143).
T1 construct: host or cells: cAMP Hunter CHO-K1 OPRD1 Gαi cell line
T1 sequence (P41143 whole entry): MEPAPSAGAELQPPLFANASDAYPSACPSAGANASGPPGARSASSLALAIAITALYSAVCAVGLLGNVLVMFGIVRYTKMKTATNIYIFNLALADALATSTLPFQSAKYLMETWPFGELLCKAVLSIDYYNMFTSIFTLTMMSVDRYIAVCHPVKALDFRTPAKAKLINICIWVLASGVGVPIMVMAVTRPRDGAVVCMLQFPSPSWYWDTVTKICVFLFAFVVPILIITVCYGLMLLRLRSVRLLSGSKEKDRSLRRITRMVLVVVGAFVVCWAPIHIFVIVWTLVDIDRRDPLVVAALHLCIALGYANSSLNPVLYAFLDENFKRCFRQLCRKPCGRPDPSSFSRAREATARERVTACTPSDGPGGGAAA
The data set is described as follows: DOR agonist cAMP assay (HitHunter cAMP, forskolin-stimulated). It is filed as cell-based. In outline:
(§1)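 CHO-K1 Gαi cells expressing OPRM1 or OPRD1 were exposed 30 min at 37° C to 11-point threefold agonist dilutions, in duplicate, with 20 uM forskolin final. cAMP quantified by EFC chemiluminescent competitive immunoassay against cAMP standards. EC50 by four-parameter Hill nonlinear regression.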
For orientation: cAMP levels reflect the balance of adenylyl cyclase and phosphodiesterase activity.

Data set [2] is described as follows: SGF assay (stability in simulated gastric fluid). It is filed as in vitro ADME. Particulars: pig, simulated gastric fluid (SGF) with porcine pepsin, pH 2, pepsin, 37° C. The procedure: SGF was prepared by adding 20 mg NaCl, 32 mg porcine pepsin (MP Biochemicals, catalog 02102599), and 70 μl HCl to 10 ml water (final pH=2). Aliquots of SGF (0.5 ml each) were pre-warmed at 37° C. To start the reaction, 1 μl of opioid agonist peptide stock solution (10 mM in DMSO) was added to 0.5 ml SGF and thoroughly mixed such that the final peptide concentration was 20 μM. The reactions were incubated at 37° C. with gentle shaking.
At each timepoint (0, 15, 30, 60 min) 50 µl aliquots were removed and added to 200 ul of acetonitrile containing 0.1% formic acid to quench the reaction. Samples were stored at 4° C. until the end of the experiment and centrifuged at 10,000 rpm for 5 minutes. Aliquots of the supernatant were removed, diluted 1:1 into distilled water containing internal standard, and analyzed by LCMS/MS. The percent of the opioid agonist peptide remaining at each timepoint was calculated based on the peak area response ratio of the opioid agonist peptide to the internal standard. Time 0 was set to 100%, and all later timepoints were calculated relative to time 0. Half-lives were calculated by fitting to a first-order exponential decay equation using GraphPad.

Another data set addresses T2, μ-opioid receptor (MOR) (Homo sapiens, UniProt P35372).
T2 construct: host or cells: cAMP Hunter CHO-K1 OPRM1 Gαi cell line
Nature of the data set: MOR agonist cAMP assay (HitHunter cAMP, forskolin-stimulated). It is filed as cell-based. In outline: as §1

T2 sequence (P35372 whole entry): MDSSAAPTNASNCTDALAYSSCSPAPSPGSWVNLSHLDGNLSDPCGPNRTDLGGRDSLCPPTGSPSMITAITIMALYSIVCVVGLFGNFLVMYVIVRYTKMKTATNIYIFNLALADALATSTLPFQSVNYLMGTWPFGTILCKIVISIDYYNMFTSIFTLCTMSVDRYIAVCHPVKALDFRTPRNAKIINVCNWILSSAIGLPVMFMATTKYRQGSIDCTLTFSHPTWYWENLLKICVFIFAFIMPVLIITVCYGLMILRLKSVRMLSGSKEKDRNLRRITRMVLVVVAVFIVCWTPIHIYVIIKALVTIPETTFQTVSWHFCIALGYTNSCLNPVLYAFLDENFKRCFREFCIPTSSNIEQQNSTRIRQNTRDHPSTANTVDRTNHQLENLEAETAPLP

On to `Cc1cc(C(N)=O)cc(C)c1C[C@H](N)C(=O)N[C@H](C)C(=O)NCC(=O)N[C@H](CC(=O)N(C)CC(N)=O)Cc1ccccc1` [Seq. ID 70, H-Phe(2,6-dimethyl-4-CONH2)-a-G-bhF-Sar-NH2], for which the “SIF (min)” value in data set [1] (Table 4, SIF half-life) is “**** (for SIF half-life values, **** indicates >1290)”.
Turning to `C[C@@H](NC(=O)C[C@@H](N)Cc1ccc(O)cc1)C(=O)NCC(=O)N[C@H](CC(=O)N(C)CC(N)=O)Cc1ccccc1` [compound 50], in data set [1], the half-life (commonly the time in which the quantity being followed falls by half) at 20 μM is 6 to 24 h. Also, on δ-opioid receptor (DOR), the EC50 (commonly the midpoint of the concentration-response curve) is more than 200 nM.
`CN[C@@H](Cc1ccc(O)cc1)C(=O)N[C@H](C)C(=O)NCC(=O)N[C@H](CC(=O)N(C)CC(N)=O)Cc1ccccc1` [compound 51] gave a half-life at 20 μM in data set [1] of 6 to 24 h. Besides, at δ-opioid receptor (DOR), the concentration for a half-maximal effect (EC50) is more than 200 nM.
In the same order, the values of `C[C@@H](NC(=O)[C@@H](N)Cc1ccc(O)c(C(C)(C)C)c1)C(=O)NCC(=O)N[C@H](CC(=O)N(C)CC(N)=O)Cc1ccccc1` [compound 52] are 6 to 24 h and more than 200 nM.
`C[C@@H](NC(=O)[C@H](N)Cc1ccc(O)cc1)C(=O)NCC(=O)N[C@H](CC(=O)N(C)CC(N)=O)Cc1ccccc1` [compound 53]: the half-life at 20 μM in data set [1] was 6 to 24 h. The EC50 on δ-opioid receptor (DOR) was more than 200 nM.
`C[C@@H](NC(=O)[C@@H](N)CCc1ccc(O)cc1)C(=O)NCC(=O)N[C@H](CC(=O)N(C)CC(N)=O)Cc1ccccc1` [compound 54] yielded a half-life at 20 μM in data set [1] of 6 to 24 h. On δ-opioid receptor (DOR), this molecule returned an EC50 of more than 200 nM.
For `C[C@@H](NC(=O)[C@@H](N)Cc1ccc(O)c(Cl)c1)C(=O)NCC(=O)N[C@H](CC(=O)N(C)CC(N)=O)Cc1ccccc1` [compound 55], in data set [1], the half-life at 20 μM is 6 to 24 h. The same molecule came in with an EC50 on δ-opioid receptor (DOR) of 10 to 50 nM.
In data set [1], `C[C@@H](NC(=O)[C@@H](N)Cc1cccc(O)c1)C(=O)NCC(=O)N[C@H](CC(=O)N(C)CC(N)=O)Cc1ccccc1` [compound 56] yielded a half-life at 20 μM of 6 to 24 h. The same molecule came in with an EC50 on δ-opioid receptor (DOR) of more than 200 nM.
With `C[C@@H](NC(=O)[C@@H](N)Cc1ccc(O)c(F)c1)C(=O)NCC(=O)N[C@H](CC(=O)N(C)CC(N)=O)Cc1ccccc1` [compound 57], the half-life at 20 μM was 6 to 24 h in data set [1] and more than 24 h in data set [2]. On δ-opioid receptor (DOR), this molecule registered an EC50 of 1 to 10 nM.
In the case of `C[C@@H](NC(=O)[C@@H](N)Cc1ccc(O)c(O)c1)C(=O)NCC(=O)N[C@H](CC(=O)N(C)CC(N)=O)Cc1ccccc1` [compound 58], the half-life at 20 μM in data set [1] was 6 to 24 h.
As to `Cc1cc(O)cc(C)c1C[C@H](N)C(=O)N[C@H](C)C(=O)N[C@@H](C)C(=O)N[C@H](CC(=O)N(C)CC(N)=O)Cc1ccccc1` [compound 66] (H-[Dmt][dA]A[β3hF][Sar]-NH2), the half-life at 20 μM in data set [1] is more than 24 h; in data set [2] it was 0.167 to 6 h.
Regarding `Cc1cc(C(N)=O)cc(C)c1C[C@H](N)C(=O)N[C@H](C)C(=O)NCC(=O)N[C@H](CC(=O)N(C)CC(N)=O)Cc1ccccc1` [compound 70], the EC50 on μ-opioid receptor (MOR) and at δ-opioid receptor (DOR) was less than 1 nM in each case. The half-life at 20 μM was more than 24 h in data set [1] and 0.167 to 6 h in data set [2].
In the case of `Cc1cc(O)cc(C)c1C[C@H](N)C(=O)N[C@H](C)C(=O)NC(C)(C)C(=O)N[C@H](CC(=O)N(C)CC(N)=O)Cc1ccccc1` [compound 72], the EC50 on μ-opioid receptor (MOR) and at δ-opioid receptor (DOR) was less than 1 nM throughout. Also, the results for the half-life at 20 μM in data set [1] and in data set [2] were more than 24 h and 0.167 to 6 h, respectively.
Regarding `Cc1cc(O)cc(C)c1C[C@H](N)C(=O)N[C@H](C)C(=O)NCCC(=O)N[C@H](CC(=O)N(C)CC(N)=O)Cc1ccccc1` [compound 73], the half-life at 20 μM in data set [1] is more than 24 h; in data set [2] it was 0.167 to 6 h. The molecule also returned an EC50 on δ-opioid receptor (DOR) of 50 to 200 nM.
On to `Cc1cc(C(N)=O)cc(C)c1C[C@H](N)C(=O)N[C@@H](C(=O)NCC(=O)N[C@H](CC(=O)N(C)CC(N)=O)Cc1ccccc1)[C@H](C)O` [compound 76], for which the figures for the EC50 at μ-opioid receptor (MOR) and at δ-opioid receptor (DOR) were 1 to 10 nM and less than 1 nM, respectively. For the same molecule, the results for the half-life at 20 μM in data set [1] and in data set [2] were more than 24 h and 0.167 to 6 h, respectively.
`Cc1cc(C(N)=O)cc(C)c1C[C@H](N)C(=O)N[C@H](C)C(=O)NCC(=O)N[C@H](CC(=O)N(C)CC(=O)O)Cc1ccccc1` [compound 79]: the EC50 on μ-opioid receptor (MOR) and at δ-opioid receptor (DOR) was less than 1 nM in each case. Also, the half-life at 20 μM in data set [1] and in data set [2] was more than 24 h each time.
With `Cc1cc(O)cc(C)c1C[C@H](N)C(=O)NCC(=O)NCC(=O)N[C@H](CC(=O)N(C)CC(N)=O)Cc1ccccc1` [compound 81] (H-[Dmt]GG[β3hF][Sar]-NH2), the EC50 at μ-opioid receptor (MOR) and at δ-opioid receptor (DOR) was less than 1 nM throughout. The half-life at 20 μM in data set [1] and in data set [2] was more than 24 h each time.
With `Cc1cc(O)cc(C)c1C[C@H](N)C(=O)N[C@@H](C(=O)NCC(=O)N[C@H](CC(=O)N(C)CC(N)=O)Cc1ccccc1)[C@H](C)O` [compound 82], the EC50 on μ-opioid receptor (MOR) and at δ-opioid receptor (DOR) was less than 1 nM in each case. Further, the half-life at 20 μM in data set [1] and in data set [2] was more than 24 h each time.
On to `Cc1cc(O)cc(C)c1C[C@H](N)C(=O)N[C@H](Cc1ccc(O)cc1)C(=O)NCC(=O)N[C@H](CC(=O)N(C)CC(N)=O)Cc1ccccc1` [compound 84], for which the EC50 on μ-opioid receptor (MOR) and at δ-opioid receptor (DOR) was less than 1 nM each time. Besides, the half-life at 20 μM in data set [1] and in data set [2] was more than 24 h each time.
For the molecule `Cc1cc(O)cc(C)c1C[C@H](N)C(=O)N[C@H](C)C(=O)NCC(=O)N[C@H](CC(=O)N(C)CC(=O)O)Cc1ccccc1` [compound 87], the half-life at 20 μM in data set [1] was more than 24 h; in data set [2], 6 to 24 h. Further, the EC50 on δ-opioid receptor (DOR) is less than 1 nM.
In the same order, the values of `Cc1cc(O)cc(C)c1C[C@H](N)C(=O)N[C@H](C)C(=O)NCC(=O)N[C@H](CC(=O)NCC(N)=O)Cc1ccccc1` [compound 112] are more than 24 h, more than 24 h and less than 1 nM.
For `Cc1cc(O)cc(C)c1C[C@H](N)C(=O)N[C@H](C)C(=O)NCC(=O)N[C@H](CC(=O)N(CCC(C)C)CC(N)=O)Cc1ccccc1` [compound 116] the same measures were more than 24 h, more than 24 h and less than 1 nM.
For the molecule `Cc1cc(O)cc(C)c1C[C@H](N)C(=O)N[C@H](C)C(=O)NCC(=O)N[C@H](CC(=O)N(CCCOC(C)C)CC(N)=O)Cc1ccccc1` [compound 117], the half-life at 20 μM in data set [1] and in data set [2] was more than 24 h each time. On δ-opioid receptor (DOR), the EC50 is less than 1 nM.
Regarding `Cc1cc(O)cc(C)c1C[C@H](N)C(=O)N[C@H](C)C(=O)NCC(=O)N[C@H](CC(=O)N(C)[C@@H](CC(C)C)C(=O)O)Cc1ccccc1` [compound 155], the half-maximal effective concentration (EC50) on μ-opioid receptor (MOR) is less than 1 nM. In addition, the half-life at 20 μM in data set [1] and in data set [2] was more than 24 h throughout.
Turning to `Cc1cc(O)cc(C)c1C[C@H](N)C(=O)N[C@H](C)C(=O)NCC(=O)N[C@H](CC(=O)N(C)[C@H](C(=O)O)c1ccccc1)Cc1ccccc1` [compound 157], the EC50 at μ-opioid receptor (MOR) and on δ-opioid receptor (DOR) was less than 1 nM each time. For the same molecule, in data set [1], the half-life at 20 μM was more than 24 h.
`CCCC[C@@H](C(=O)O)N(C)C(=O)C[C@H](Cc1ccccc1)NC(=O)CNC(=O)[C@@H](C)NC(=O)[C@@H](N)Cc1c(C)cc(O)cc1C` [compound 159] yielded an EC50 on μ-opioid receptor (MOR) of less than 1 nM. For the same molecule, the half-life at 20 μM in data set [1] and in data set [2] was more than 24 h each time.
For `Cc1cc(O)cc(C)c1C[C@H](N)C(=O)N[C@H](C)C(=O)NCC(=O)N[C@H](CC(=O)N(C)CC(=O)N[C@H](CCCCNC(=O)COCC(=O)NCCCC[C@@H](NC(=O)CN(C)C(=O)C[C@H](Cc1ccccc1)NC(=O)CNC(=O)[C@@H](C)NC(=O)[C@@H](N)Cc1c(C)cc(O)cc1C)C(N)=O)C(N)=O)Cc1ccccc1` [compound 271] (I: H-[Dmt][dA]G[β3hF][Sar][dK]-NH2 / II: H-[Dmt][dA]G[β3hF][Sar][dK]-NH2; linker I:6-II:6 via Diglycolyl), the EC50 at μ-opioid receptor (MOR) and on δ-opioid receptor (DOR) was 1 to 10 nM in each case.
